Laboratory results taken from US8748621B2, “1,3-disubstituted 4-(aryl-X-phenyl)-1H-pyridin-2-ones” (Janssen Pharmaceuticals, Inc., priority 2007, dated 2014).

How the values were obtained:
human mGluR2 receptor = biological target: T1, human mGluR2 receptor (Homo sapiens, UniProt Q14416); assay: [35S]GTPγS binding assay (GTPγS-PAM), membranes from CHO cells transfected with human mGluR2, glutamate at EC25; type: biochemical; settings: positive allosteric modulation in presence of glutamate at EC25 concentration; averages of duplicate values of 11-concentration response curves; error about 0.3 log-units; read-out: GTPgS - hR2 PAM pEC50 (converted)
T1 construct: expressed in transfected cells; host or cells: CHO cells (membrane preparation)
Excerpt: The compounds provided in the present invention are positive allosteric modulators of mGluR2. These compounds appear to potentiate glutamate responses by binding to an allosteric site other than the glutamate binding site. The response of mGluR2 to a concentration of glutamate is increased when compounds of Formula (I) are present. Compounds of Formula (I) are expected to have their effect substantially at mGluR2 by virtue of their ability to enhance the function of the receptor. The behaviour of positive allosteric modulators tested at mGluR2 using the [^35S]GTPγS binding assay method described below and which is suitable for the identification of such compounds, and more particularly the compounds according to Formula (I), are shown in Table 4.
The [^35S]GTPγS binding assay is a functional membrane-based assay used to study G-protein coupled receptor (GPCR) function whereby incorporation of a non-hydrolysable form of GTP, [^35S]GTPγS (guanosine 5′-triphosphate, labelled with […] ^35S), is measured. The G-protein α subunit catalyzes the exchange of guanosine 5′-diphosphate (GDP) by guanosine triphosphate (GTP) and on activation of the GPCR by an agonist, [^35S]GTPγS, becomes incorporated and cannot be cleaved to continue the exchange cycle (Harper (1998) Current Protocols in Pharmacology 2.6.1-10, John Wiley & Sons, Inc.). […] Here we describe the use of the [^35S]GTPγS binding assay using membranes from cells transfected with the human mGluR2 receptor and adapted from Schaffhauser et al ((2003) Molecular Pharmacology 4:798-810) for the detection of the positive allosteric modulation (PAM) properties of the compounds of this invention.
Cho-cells were cultured to pre-confluence and stimulated with 5 mm butyrate for 24 hours, prior to washing in PBS, and then collection by scraping in homogenisation buffer (50 mM Tris-HCl buffer, pH 7.4, 4° C.). Cell lysates were homogenized briefly (15 s) using an ultra-turrax homogenizer. The homogenate was centrifuged at 23 500×g for 10 minutes and the supernatant discarded. The pellet was resuspended in 5 mM Tris-HCl, pH 7.4 and centrifuged again (30 000×g, 20 min, 4° C.). The final pellet was resuspended in 50 mM HEPES, pH 7.4 and stored at −80° C. in appropriate aliquots before use. Protein concentration was determined by the Bradford method (Bio-Rad, USA) with bovine serum albumin as standard.
Measurement of mGluR2 positive allosteric modulatory activity of test compounds in membranes containing human mGluR2 was performed using frozen membranes that were thawed and briefly homogenised prior to pre-incubation in 96-well microplates (15 μg/assay well, 30 minutes, 30° C.) in assay buffer (50 mM HEPES pH 7.4, 100 mM NaCl, 3 mM MgCl2, 50 μM GDP, 10 μg/ml saponin,) with increasing concentrations of positive allosteric modulator (from 0.3 nM to 50 μM) and either a minimal pre-determined concentration of glutamate (PAM assay), or no added glutamate. For the PAM assay, membranes were pre-incubated with glutamate at EC25 concentration, i.e. a concentration that gives 25% of the maximal response glutamate, and is in accordance to published data (Pin et al. (1999) Eur. J. Pharmacol. 375:277˜294). After addition of [^35S]GTPγS (0.1 nM, f.c.) to achieve a total reaction volume of 200 μl, microplates were shaken briefly and further incubated to allow [^35S]GTPγS incorporation on activation (30 minutes, 30° C.). The reaction was stopped by rapid vacuum filtration over glass-fibre filter plates (Unifilter 96-well GF/B filter plates, Perkin-Elmer, Downers Grove, USA) microplate using a 96-well plate cell harvester (Filtermate, Perkin-Elmer, USA), and then by washing three times with 300 μl of ice-cold wash buffer (Na2PO4.2H20 10 mM, NaH2PO4.H20 10 mM, pH=7.4). Filters were then air-dried, and 40 μl of liquid scintillation cocktail (Microscint-O) was added to each well, and membrane-bound [^35S]GTPγS was measured in a 96-well scintillation plate reader (Top-Count, Perkin-Elmer, USA). […]

T1 sequence (Q14416 19-872): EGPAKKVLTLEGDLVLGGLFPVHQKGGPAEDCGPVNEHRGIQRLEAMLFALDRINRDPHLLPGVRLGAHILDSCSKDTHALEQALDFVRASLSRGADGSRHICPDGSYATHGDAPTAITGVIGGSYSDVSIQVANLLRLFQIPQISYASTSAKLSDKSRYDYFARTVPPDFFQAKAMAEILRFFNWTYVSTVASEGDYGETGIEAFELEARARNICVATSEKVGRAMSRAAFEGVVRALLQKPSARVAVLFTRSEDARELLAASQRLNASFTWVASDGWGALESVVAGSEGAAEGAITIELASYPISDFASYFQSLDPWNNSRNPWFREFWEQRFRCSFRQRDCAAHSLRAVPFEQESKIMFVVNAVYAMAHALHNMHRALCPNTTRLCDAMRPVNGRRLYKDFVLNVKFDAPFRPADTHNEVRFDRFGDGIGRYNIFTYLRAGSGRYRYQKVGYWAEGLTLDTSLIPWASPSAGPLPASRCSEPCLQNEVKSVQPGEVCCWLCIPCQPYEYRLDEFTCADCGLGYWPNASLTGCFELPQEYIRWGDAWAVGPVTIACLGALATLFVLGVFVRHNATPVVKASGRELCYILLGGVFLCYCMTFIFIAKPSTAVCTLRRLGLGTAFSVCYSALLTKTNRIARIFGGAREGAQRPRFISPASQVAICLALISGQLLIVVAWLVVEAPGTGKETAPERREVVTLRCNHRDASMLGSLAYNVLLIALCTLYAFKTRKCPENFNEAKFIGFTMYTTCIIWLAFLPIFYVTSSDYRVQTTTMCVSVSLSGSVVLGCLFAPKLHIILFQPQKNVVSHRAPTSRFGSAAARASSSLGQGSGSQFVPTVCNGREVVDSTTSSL

Compound	EC50 (human mGluR2 receptor) [nM]	melting point [°C]
CCCCn1ccc(-c2ccc(Oc3ccnc(C)c3C)cc2F)c(Cl)c1=O [Compound 11]	67.6	
Cc1cc(Oc2ccc(-c3ccn(CC4CC4)c(=O)c3Cl)c(F)c2)ccn1 [Compound 28]	363	131.8
Cc1ccc(Oc2ccc(-c3ccn(CC4CC4)c(=O)c3Cl)cc2Cl)cn1 [Compound 20]	91.2	111.8
Cc1cc(Oc2ccc(-c3ccn(CC4CC4)c(=O)c3C(F)(F)F)cc2F)ccn1 [Compound 38]	102	203.9
CCCCn1ccc(-c2ccc(Oc3ccc(C)nc3)c(Cl)c2)c(Cl)c1=O [Compound 22]	46.8	79.7
CCCCn1ccc(-c2ccc(Oc3cccnc3C)cc2)c(Cl)c1=O [Compound 25]	224	
CCCCn1ccc(-c2ccc(Oc3ccc(C)nc3C)c(F)c2)c(Cl)c1=O [Compound 30]	46.8	
CCCCn1ccc(-c2ccc(Oc3cccnc3C)cc2F)c(Cl)c1=O [Compound 29]	> 10000	108.4
CCCCn1ccc(-c2ccc(Oc3ccc(C)nc3C)cc2)c(Cl)c1=O [Compound 16]	67.6	
Cc1cc(Oc2ccc(-c3ccn(CCC4CC4)c(=O)c3Cl)cc2)ccn1 [Compound 7]	174	
CCCCn1ccc(-c2ccc(Oc3cc(C)nc(C)c3)cc2F)c(Cl)c1=O [Compound 10]	200	
CCCCn1ccc(-c2ccc(Oc3cccnc3C)c(Cl)c2)c(Cl)c1=O [Compound 15]	60.3	
Cc1ccc(Oc2ccc(-c3ccn(CC4CC4)c(=O)c3Cl)cc2)c(C)n1 [Compound 14]	138	151.8
Cc1cc(Oc2ccc(-c3ccn(CC4CC4)c(=O)c3Cl)c(F)c2)cc(C)n1 [Compound 32]	372	148.6
CCCCn1ccc(-c2ccc(Oc3ccnc(C)c3C)c(F)c2)c(Cl)c1=O [Compound 12]	129	
Cc1ncccc1Oc1ccc(-c2ccn(CC3CC3)c(=O)c2Cl)c(F)c1 [Compound 34]	> 10000	120.9
Cc1cc(Oc2ccc(-c3ccn(CCC(C)C)c(=O)c3Cl)cc2)ccn1 [Compound 6]	170	
CCCCn1ccc(-c2ccc(Oc3ccc(C)nc3C)cc2F)c(Cl)c1=O [Compound 35]	> 10000	
Cc1ncccc1Oc1ccc(-c2ccn(CC3CC3)c(=O)c2Cl)cc1F [Compound 33]	617	

Compound	EC50 (human mGluR2 receptor) [nM]	melting point [°C]
CCCCn1ccc(-c2ccc(Oc3ccnc(C)c3)cc2F)c(Cl)c1=O [Compound 2, 1-Butyl-3-chloro-4-[2-fluoro-4-(2-methylpyridin-4-yloxy)-phenyl]-1H-pyridin-2-one]	282	
CCCCn1ccc(-c2ccc(Oc3cc(C)nc(C)c3)c(F)c2)c(Cl)c1=O [Compound 9]	234	
CCCCn1ccc(-c2ccc(Oc3ccnc(C)c3)c(F)c2)c(Cl)c1=O [Compound 8]	174	
Cc1cc(Oc2ccc(-c3ccn(CC4CC4)c(=O)c3Cl)cc2Cl)ccn1 [Compound 17]	117	120.8
Cc1ccc(Oc2ccc(-c3ccn(CCC(C)C)c(=O)c3Cl)cc2Cl)cn1 [Compound 21]	46.8	96.1
Cc1cc(Oc2ccc(-c3ccn(CC4CC4)c(=O)c3C(F)(F)F)cc2F)cc(C)n1 [Compound 5, 1-Cyclopropylmethyl-4-[4-(2,6-dimethyl-pyridin-4-yloxy)-3-fluoro-phenyl]-3-trifluoromethyl-1H-pyridin-2-one]	75.9	161.8
Cc1cc(C)nc(Oc2ccc(-c3ccn(CC4CC4)c(=O)c3Cl)c(F)c2)c1 [Compound 36]	891	
CCCCn1ccc(-c2ccc(Oc3ccc(C(C)(C)O)cc3)cc2)c(Cl)c1=O [Compound 37]	39.8	
Cc1cc(Oc2ccc(-c3ccn(CC4CC4)c(=O)c3Cl)cc2)ccn1 [Compound 13]	513	
CCCCn1ccc(-c2ccc(Oc3ccc(C(=O)O)cc3)cc2)c(Cl)c1=O [Compound 4, 4-[4-(1-Butyl-3-chloro-2-oxo-1,2-dihydro-pyridin-4-yl)-phenoxy]-benzoic acid]	138	280.3
CCCCn1ccc(-c2ccc(Oc3ccnc(C)c3)c(Cl)c2)c(Cl)c1=O [Compound 18]	100	
Cc1cc(Oc2ccc(-c3ccn(CC4CC4)c(=O)c3Cl)cc2F)cc(C)n1 [Compound 31]	288	161.6
Cc1ncccc1Oc1ccc(-c2ccn(CC3CC3)c(=O)c2Cl)cc1Cl [Compound 23]	126	
Cc1cc(Oc2ccc(-c3ccn(CC4CC4)c(=O)c3Cl)cc2F)ccn1 [Compound 27]	355	176
Cc1cc(Oc2ccc(-c3ccn(CCC(C)C)c(=O)c3Cl)cc2Cl)ccn1 [Compound 19]	67.6	103.8
Cc1cc(Oc2ccc(-c3ccn(CCC4CC4)c(=O)c3Cl)c(F)c2)ccn1 [Compound 26]	155	
Cc1ccc(Oc2ccc(-c3ccn(CC4CC4)c(=O)c3Cl)cc2F)c(C)n1 [Compound 3, 3-Chloro-1-cyclopropylmethyl-4-[4-(2,6-dimethylpyridin-3-yloxy)-3-fluoro-phenyl]-1H-pyridin-2-one]	182	143.4
Cc1ncccc1Oc1ccc(-c2ccn(CC3CC3)c(=O)c2Cl)cc1 [Compound 24]	437	126.2
CCCCn1ccc(-c2ccc(Oc3ccnc(C)c3)cc2)c(Cl)c1=O [Compound 1, 1-Butyl-3-chloro-4-[4-(2-methylpyridin-4-yloxy)-phenyl]-1H-pyridin-2-one]	251	
